This note sets out measurements from ChEMBL document CHEMBL1201862, “PubChem BioAssay data set” (2004).

SMILES strings stand for the structures. Active and inactive are the calls of the source.

In assay [1] the target is T1, Calpain-2 catalytic subunit (Sus scrofa, UniProt P43367).
T1 sequence (P43367 whole entry): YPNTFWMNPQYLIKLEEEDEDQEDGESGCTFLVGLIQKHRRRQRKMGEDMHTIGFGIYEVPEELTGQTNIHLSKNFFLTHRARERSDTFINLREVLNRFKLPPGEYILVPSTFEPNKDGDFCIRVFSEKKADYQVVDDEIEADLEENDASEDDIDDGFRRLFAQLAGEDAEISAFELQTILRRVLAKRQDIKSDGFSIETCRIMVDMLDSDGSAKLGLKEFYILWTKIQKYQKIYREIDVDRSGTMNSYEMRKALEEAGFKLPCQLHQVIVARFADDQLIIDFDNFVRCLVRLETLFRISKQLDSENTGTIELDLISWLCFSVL
In words: pig calpain II inhibitor potency, dose response, biochemical, fluorogenic peptide substrate (AID 1420). It is filed as functional.

For assay [2], the target named is T2, Corticotropin-releasing factor receptor 2/Corticotropin-releasing factor-binding protein (Homo sapiens, UniProt P24387+Q13324).
T2 sequence (Q13324 whole entry): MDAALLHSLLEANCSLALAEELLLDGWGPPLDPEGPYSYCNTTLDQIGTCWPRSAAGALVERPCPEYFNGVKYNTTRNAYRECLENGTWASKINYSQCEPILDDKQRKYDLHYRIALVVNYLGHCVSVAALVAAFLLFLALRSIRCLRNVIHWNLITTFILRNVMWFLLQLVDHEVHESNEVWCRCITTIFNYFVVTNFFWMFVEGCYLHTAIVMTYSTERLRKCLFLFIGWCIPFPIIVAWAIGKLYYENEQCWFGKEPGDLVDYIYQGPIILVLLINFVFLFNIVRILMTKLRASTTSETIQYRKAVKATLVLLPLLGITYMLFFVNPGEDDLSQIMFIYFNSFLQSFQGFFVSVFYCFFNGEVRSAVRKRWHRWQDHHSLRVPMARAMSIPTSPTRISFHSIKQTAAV
T2 sequence (P24387 whole entry): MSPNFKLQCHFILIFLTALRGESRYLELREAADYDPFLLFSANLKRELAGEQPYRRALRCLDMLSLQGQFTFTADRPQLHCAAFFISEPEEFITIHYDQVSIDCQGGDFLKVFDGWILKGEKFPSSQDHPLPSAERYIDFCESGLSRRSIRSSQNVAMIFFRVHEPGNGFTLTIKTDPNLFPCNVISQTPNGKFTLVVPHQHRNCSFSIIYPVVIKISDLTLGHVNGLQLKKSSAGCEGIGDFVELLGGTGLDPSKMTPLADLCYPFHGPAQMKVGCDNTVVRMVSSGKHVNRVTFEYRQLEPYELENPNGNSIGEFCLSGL
In words: Dose Response confirmation of uHTS hits for small molecule antagonists of the CRF-binding protein and CRF-R2 receptor complex. It is filed as functional. Particulars: read-out: IC50_Mean.

Assay [3] deals with T2, Corticotropin-releasing factor receptor 2/Corticotropin-releasing factor-binding protein. In words: activators of CRF receptor 2 with binding protein – uHTS hits, confirmation (AID 602473). It is filed as functional. Particulars: read-out: EC50_Mean.
In assay [4] the target is T3, Replicative DNA helicase DnaB (Mycobacterium tuberculosis, UniProt P9WMR3).
T3 sequence (P9WMR3 whole entry): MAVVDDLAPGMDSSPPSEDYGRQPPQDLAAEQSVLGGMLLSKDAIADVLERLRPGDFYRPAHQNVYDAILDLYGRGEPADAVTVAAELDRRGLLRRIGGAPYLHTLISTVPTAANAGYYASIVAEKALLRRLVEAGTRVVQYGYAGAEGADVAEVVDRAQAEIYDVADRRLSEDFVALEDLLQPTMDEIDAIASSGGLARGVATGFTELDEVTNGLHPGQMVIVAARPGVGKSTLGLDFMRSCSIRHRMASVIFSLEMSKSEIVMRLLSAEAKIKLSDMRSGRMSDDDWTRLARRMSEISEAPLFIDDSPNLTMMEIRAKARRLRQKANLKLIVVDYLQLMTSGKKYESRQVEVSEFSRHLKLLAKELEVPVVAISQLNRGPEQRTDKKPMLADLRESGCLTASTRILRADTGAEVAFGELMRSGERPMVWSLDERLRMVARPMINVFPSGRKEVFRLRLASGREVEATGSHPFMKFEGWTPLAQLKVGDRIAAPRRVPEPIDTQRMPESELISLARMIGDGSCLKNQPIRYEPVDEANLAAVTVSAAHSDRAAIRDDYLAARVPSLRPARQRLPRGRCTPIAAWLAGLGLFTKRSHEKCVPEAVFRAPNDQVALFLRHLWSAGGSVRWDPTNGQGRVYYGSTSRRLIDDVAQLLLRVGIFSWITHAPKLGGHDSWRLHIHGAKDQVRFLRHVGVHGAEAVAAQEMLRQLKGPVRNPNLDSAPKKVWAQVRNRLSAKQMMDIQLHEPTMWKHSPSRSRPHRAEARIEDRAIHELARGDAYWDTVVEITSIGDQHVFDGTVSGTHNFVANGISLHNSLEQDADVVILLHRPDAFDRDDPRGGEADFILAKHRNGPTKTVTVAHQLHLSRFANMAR
In words: DnaB intein splicing inhibitors, dose response, biochemical, cell-free fluorescence (AID 449749). It is filed as functional.

The next assay has as its target T4, Protein RecA (Mycobacterium tuberculosis, UniProt P9WHJ3).
T4 sequence (P9WHJ3 whole entry): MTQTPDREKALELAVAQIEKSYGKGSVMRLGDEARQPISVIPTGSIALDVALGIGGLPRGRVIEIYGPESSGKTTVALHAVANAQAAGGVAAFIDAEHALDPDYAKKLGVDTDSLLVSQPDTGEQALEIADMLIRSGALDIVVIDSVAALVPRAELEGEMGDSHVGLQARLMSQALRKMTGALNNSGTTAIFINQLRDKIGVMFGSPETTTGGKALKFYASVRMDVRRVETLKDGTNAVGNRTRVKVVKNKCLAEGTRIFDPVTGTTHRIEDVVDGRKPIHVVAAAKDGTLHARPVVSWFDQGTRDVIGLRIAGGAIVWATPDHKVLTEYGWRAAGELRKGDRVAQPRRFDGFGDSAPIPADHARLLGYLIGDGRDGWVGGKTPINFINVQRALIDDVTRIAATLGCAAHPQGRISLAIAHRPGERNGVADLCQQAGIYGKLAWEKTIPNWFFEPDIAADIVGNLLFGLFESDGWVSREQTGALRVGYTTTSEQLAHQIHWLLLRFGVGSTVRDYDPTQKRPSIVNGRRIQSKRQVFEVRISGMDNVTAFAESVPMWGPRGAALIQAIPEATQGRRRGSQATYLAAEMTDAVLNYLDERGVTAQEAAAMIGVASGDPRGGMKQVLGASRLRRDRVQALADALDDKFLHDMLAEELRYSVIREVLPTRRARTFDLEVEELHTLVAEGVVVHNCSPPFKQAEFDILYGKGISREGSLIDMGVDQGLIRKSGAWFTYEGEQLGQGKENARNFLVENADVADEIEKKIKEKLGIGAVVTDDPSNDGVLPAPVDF
In words: Fluorescence Cell-Free Homogeneous Dose Retest to Identify Inhibitors of RecA-Intein Splicing Activity. [Related pubchem assays (depositor defined):AID2097, AID2223, AID489010, AID492950]. In kind it is functional.

In a further assay the test system is H9c2. In words: cells. The note with it: Rattus norvegicus, H9c2, Myocardium. In kind it is functional, cell-based.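 Note: confirmatory concentration-response retest of ultra-high-throughput screening hits for modulation of myocardial damage; cell death induced by hydrogen peroxide oxidative stress; compound pretreatment for 60 min then peroxide exposure for 2 h; potency is for protecting the cells against peroxide damage rather than for killing them.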
The target of a further assay is Cytochrome P450 2D6 (Homo sapiens, UniProt P10635).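 Note: CYP2D6 member of a cytochrome P450 panel assay.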
Cytochrome P450 2D6, sequence (P10635 whole entry): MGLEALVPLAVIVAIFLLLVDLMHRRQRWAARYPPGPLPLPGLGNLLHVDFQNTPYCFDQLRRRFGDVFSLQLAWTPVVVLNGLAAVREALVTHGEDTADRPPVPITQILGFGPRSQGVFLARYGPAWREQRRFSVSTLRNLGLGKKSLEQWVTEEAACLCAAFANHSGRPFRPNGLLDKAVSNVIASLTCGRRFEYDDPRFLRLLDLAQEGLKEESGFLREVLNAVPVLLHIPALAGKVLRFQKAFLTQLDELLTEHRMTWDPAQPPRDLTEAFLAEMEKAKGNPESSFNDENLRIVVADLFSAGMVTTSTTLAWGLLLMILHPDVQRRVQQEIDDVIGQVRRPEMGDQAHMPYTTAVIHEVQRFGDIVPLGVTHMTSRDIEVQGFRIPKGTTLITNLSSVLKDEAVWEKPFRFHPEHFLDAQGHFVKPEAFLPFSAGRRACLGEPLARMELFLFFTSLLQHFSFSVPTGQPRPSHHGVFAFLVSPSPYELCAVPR
In the next assay the target is T5, Cytochrome P450 1A2 (Homo sapiens, UniProt P05177).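 Note: PubChem cytochrome P450 panel assay, CYP1A2 panel member.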
T5 sequence (P05177 whole entry): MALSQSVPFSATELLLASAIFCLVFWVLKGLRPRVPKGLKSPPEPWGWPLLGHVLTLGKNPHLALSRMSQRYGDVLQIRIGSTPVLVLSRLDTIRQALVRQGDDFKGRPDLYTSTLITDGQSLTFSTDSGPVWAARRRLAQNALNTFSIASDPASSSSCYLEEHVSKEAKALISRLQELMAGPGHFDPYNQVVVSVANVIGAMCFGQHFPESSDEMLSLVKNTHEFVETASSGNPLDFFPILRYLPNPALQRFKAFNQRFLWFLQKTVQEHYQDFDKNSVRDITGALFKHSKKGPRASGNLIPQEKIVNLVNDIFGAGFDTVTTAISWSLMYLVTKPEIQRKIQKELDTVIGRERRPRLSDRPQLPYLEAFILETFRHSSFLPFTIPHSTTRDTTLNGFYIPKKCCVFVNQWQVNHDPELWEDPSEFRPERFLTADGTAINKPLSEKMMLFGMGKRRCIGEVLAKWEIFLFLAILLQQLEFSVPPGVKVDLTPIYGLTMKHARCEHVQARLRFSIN

A further assay concerns H4. In words: Luminescence Cell-Based Dose Response HTS to Identify Activators of 5'UTR Stem-Loop Driven Prion Protein mRNA Translation in H4 Neuroglioblastoma Cells. [Related pubchem assays: 1829 (Project Summary), 1814 (Primary HTS)]. The note with it: Homo sapiens. It is filed as functional.

In the case of `CCOc1ccc(NC(=NCc2ccc3c(c2)OCO3)SC2CC(=O)N(c3ccccc3)C2=O)cc1` (stereo not given), the IC50 in assay [1] was > 50 µM (not active).
For `CN1CCN(CCc2nc3cc(NC(=O)c4ccco4)ccc3n2C)CC1`, the IC50 in assay [1] is on record as > 50 µM (not active).
With `Cc1ccc(S(=O)(=O)Nc2cc(O)nc(SCC(=O)Nc3cccc(C(F)(F)F)c3)n2)cc1`, the IC50 in assay [2] was > 47.1 µM (inactive). The EC50 in [3] is > 53 µM (inactive).
As for `COc1ccc(-c2cc(CNC(=O)CCl)on2)cc1`, in assay [4], the AC50 was 262 µM (active). The EC50 on Protein RecA was 17.7 µM (active).
Regarding `CCOC(=O)C1=NN(C(=O)c2ccco2)C2(CC2)C1`, in the assay on H9c2, the IC50 is > 79 µM (inactive).
With `COc1ccc(C(=O)ON=C(N)Cc2ccc(Cl)c(Cl)c2)cc1OC`, in [2], the IC50 is 7.41 µM (active). Also, in [3], the EC50 was > 53 µM (inactive).
For the compound `O=C(OCc1nnn(Cc2ccccc2)c1-c1c(COC(=O)c2ccccc2)nnn1Cc1ccccc1)c1ccccc1`, the IC50 in assay [1] is 2.52 µM (not active).
Consider `CCOC(=O)N1CCN(C(=O)CSc2nnc(CNC(=O)c3ccccc3F)o2)CC1`, for which, in assay [2], the IC50 is > 47.1 µM (inactive). In addition, in assay [3], the EC50 is > 53 µM (inactive).
Turning to `CN(c1ccccc1)c1ccc([N+](=O)[O-])c2nonc12`, in [4], the AC50 was 74.7 µM (active). Also, at Protein RecA, the EC50 is 5.22 µM (active).
As for `O=[N+]([O-])c1cc(-c2nnc(O)c3ccccc23)ccc1NCCO`, the IC50 with H9c2 is 16.6 µM (active).
With `Cc1cccc([N+]2=C3CCCCN3C(O)(c3cccs3)C2)c1` (stereo not given), in assay [2], the IC50 is > 47.1 µM (inactive). Besides, the EC50 in assay [3] is > 53 µM (inactive).
For `COCc1c(C(=O)Nc2ccc3nc(N4CCOCC4)sc3c2)oc2ccccc12`, the IC50 with H9c2 was > 79 µM (inactive).
As to `CC(C)c1ccc(C(=O)NC(=S)NCc2cccnc2)cc1`, in [1], the IC50 is recorded as 27 µM (not active).
Same read-out and setting: for `CC(CCc1ccccc1)NC(=O)/C=C/c1ccc(F)cc1` (stereo not given) the value was 27.6 µM (not active).
As for `O=C1CC(c2cccnc2)=NN1c1ccccc1`, the AC50 in assay [4] was 3.7 µM (active). For the same compound, the EC50 on Protein RecA was 13.9 µM (active).
In the case of `Cc1ccc(NC(=O)NN(C)c2c(Cl)c(Cl)nn2C)cc1`, the IC50 in assay [1] is on record as > 50 µM (not active).
With `O=C1CCc2nc3ccccc3c(=O)n2N1`, in assay [2], the IC50 was > 47.1 µM (inactive). Besides, the EC50 in assay [3] is > 53 µM (inactive).
`O=C(CCn1nc(-c2ccccc2)ccc1=O)N1CCOCC1`: the IC50 in assay [2] is > 47.1 µM (inactive). Besides, the EC50 in assay [3] was > 53 µM (inactive).
Turning to `Cn1c(N)c(C(=O)COC(=O)C23CC4CC(CC(C4)C2)C3)c(=O)n(C)c1=O`, in assay [1], the IC50 is 2.26 µM (active).
`CCC(C)(C)NC(=O)c1ccc(S(=O)(=O)N2CCCCCC2)cc1`: in [1], the IC50 is listed as 22.9 µM (not active).
For `CCOc1cc(C(c2c(C)n[nH]c2O)c2c(C)n[nH]c2O)ccc1OCc1ccc([N+](=O)[O-])cc1`, in [4], the AC50 is 0.281 µM (active). Also, at Protein RecA, the EC50 was 0.159 µM (active).
As to `CCCCOc1ccc(C(=O)N/C(=C\c2ccc(OC)cc2)C(=O)OCc2ccco2)cc1`, the IC50 in the assay with H9c2 is > 79 µM (inactive). Also, the AC50 on Cytochrome P450 2D6 is 7.94 µM (inconclusive); at Cytochrome P450 1A2, 14.1 µM (inconclusive).
Take `COCc1nc2ccccc2n1Cc1ccc(Br)cc1`: in [1], the IC50 is given as 8.1 µM (not active).
As for `CCc1ccc(NC(=O)c2ccccc2NC(=O)C2CCCO2)cc1` (stereo not given), the EC50 in the assay on H4 was 2.64 µM (active).
Take `O=C1CC/[N+](=C\c2ccc(Cl)cc2)[N-]1`: the AC50 in assay [4] was 150 µM (active). Besides, at Protein RecA, the EC50 was 3.64 µM (active).
Consider `CCO/C(O)=C1/C(C)=NC(SCC(=O)OC)=C(C#N)C1c1ccc(C(=O)OC)cc1` (stereo not given), for which the IC50 in assay [2] was < 0.368 µM (active). For the same compound, the EC50 in assay [3] was > 53 µM (inactive).
On to `CC1C(=O)C(C)C(c2cc(Br)ccc2O)NC1c1cc(Br)ccc1O` (stereo not given), for which the IC50 in [2] is > 47.1 µM (inactive). Besides, the EC50 in assay [3] is > 53 µM (inactive).
Take `COc1cc(-c2cc3nc(NCCOc4ccccc4)ccn3n2)cc(OC)c1OC`: the IC50 in the assay with H9c2 was > 79 µM (inactive).
The same measure, in the same setting: to `Cc1sc2nc(CSCC(=O)N(CCC#N)c3ccccc3F)nc(O)c2c1C` belongs > 79 µM (inactive).
As for `COC(=O)c1ccc(/C=N/NS(=O)(=O)c2cc(C)ccc2C)cc1`, the IC50 in assay [1] was 6.58 µM (not active).
